Measured values as given in article PMC12154458, “High-Throughput Screens of Repurposing Hub and DOS Chemical Libraries Reveal Compounds with Novel and Potent Inhibitory Activity Against the Essential Non-Neuronal Acetylcholinesterase of Schistosoma mansoni (SmTAChE)” (International Journal of Molecular Sciences, 2025).
Like-named read-outs stand apart in the source and are kept apart here.

Legend:
rSmTAChE [1] = biological target: T1, rSmTAChE (Schistosoma mansoni, UniProt A0A3Q0KMM5); assay: biochemical
T1 sequence (A0A3Q0KMM5 27-661 limits assumed): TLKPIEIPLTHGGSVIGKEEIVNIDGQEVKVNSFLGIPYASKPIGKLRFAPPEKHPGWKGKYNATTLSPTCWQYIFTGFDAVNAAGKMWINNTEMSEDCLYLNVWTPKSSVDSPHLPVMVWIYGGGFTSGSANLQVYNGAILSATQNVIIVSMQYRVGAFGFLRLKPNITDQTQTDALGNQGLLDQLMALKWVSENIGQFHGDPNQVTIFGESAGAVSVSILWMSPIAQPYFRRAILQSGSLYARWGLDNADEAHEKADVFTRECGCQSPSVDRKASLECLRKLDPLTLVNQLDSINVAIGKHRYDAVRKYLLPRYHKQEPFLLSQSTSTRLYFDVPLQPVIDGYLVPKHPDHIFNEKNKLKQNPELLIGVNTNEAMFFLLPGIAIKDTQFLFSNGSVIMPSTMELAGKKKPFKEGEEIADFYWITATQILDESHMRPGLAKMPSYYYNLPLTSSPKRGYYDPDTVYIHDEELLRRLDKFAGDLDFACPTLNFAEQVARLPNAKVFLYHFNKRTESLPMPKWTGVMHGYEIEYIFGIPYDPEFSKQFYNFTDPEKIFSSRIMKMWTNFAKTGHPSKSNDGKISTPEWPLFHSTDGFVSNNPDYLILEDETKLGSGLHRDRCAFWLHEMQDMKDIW

rSmTAChE [2] = biological target: T1, rSmTAChE; assay type: biochemical
[3] = biological target: recombinant human acetylcholinesterase, rHsAChE (Homo sapiens, UniProt P22303); assay: biochemical
recombinant human acetylcholinesterase, rHsAChE, sequence (P22303 32-614): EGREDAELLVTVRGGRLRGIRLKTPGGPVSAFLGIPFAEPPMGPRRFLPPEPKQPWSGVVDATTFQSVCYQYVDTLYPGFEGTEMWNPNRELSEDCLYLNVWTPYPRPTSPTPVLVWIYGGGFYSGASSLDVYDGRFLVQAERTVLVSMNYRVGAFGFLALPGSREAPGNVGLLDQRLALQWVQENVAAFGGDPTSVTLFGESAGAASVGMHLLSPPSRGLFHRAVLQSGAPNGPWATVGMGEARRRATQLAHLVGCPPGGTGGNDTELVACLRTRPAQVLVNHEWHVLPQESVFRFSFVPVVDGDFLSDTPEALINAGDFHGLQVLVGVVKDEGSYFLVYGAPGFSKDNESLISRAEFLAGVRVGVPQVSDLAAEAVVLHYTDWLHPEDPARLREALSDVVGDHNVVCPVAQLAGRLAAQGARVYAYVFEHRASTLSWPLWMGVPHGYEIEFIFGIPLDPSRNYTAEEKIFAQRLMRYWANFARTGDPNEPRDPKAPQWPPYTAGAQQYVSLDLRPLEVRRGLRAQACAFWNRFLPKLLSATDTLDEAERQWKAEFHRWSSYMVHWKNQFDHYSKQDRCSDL

[4] = read-out: rSmTAChE HTS Inhibition (Ave, %)
[5] = read-out: qAC50 (IC50), rHsAChE
[6] = read-out: qAC50 (IC50), rSmTAChE
[7] = read-out: HTS/rSmTAChE Inhibition (Ave, %)
[8] = dose response analysis of Drug Repurposing Hub hits against rHsAChE
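Throughout, for Inhibition (%) (Average): mostly 20 µM final but a few compounds at 5 or 10 µM.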
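Throughout, for Inhibition (%) Replicate A: mostly 20 µM final but a few compounds at 5 or 10 µM.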
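Throughout, for Inhibition (%) Replicate B: mostly 20 µM final but a few compounds at 5 or 10 µM.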

Compound | Data Mode (curve class), rSmTAChE (rSmTAChE [2]) | Data Mode (curve class), rHsAChE [3] | Inhibition (%) (Average) (rSmTAChE [1]) | Inhibition (%) Replicate A (rSmTAChE [1]) | Inhibition (%) Replicate B (rSmTAChE [1]) | IC50 (rSmTAChE [2]; [6]) | also measured
CN(CCCCCCCCCCN(C)C(=O)Oc1cccc([N+](C)(C)C)c1)C(=O)Oc1cccc([N+](C)(C)C)c1 [Demecarium bromide, reference compound] | decreasing | decreasing | – | – | – | – | inhibition at 20 µM (rSmTAChE [1]; [4]): 65.3%; IC50 ([3]; IC50 (µM) rHsAChE): 0.02 µM; IC50 ([3]; qAC50 (IC50), rHsAChE): 0.0225 µM
C[C@H](NC(=O)C(C)(C)Oc1ccc(C(F)(F)F)cn1)[C@@H](Cc1ccc(Cl)cc1)c1cccc(C#N)c1 [BRD-K35169477-001-01-9] | inactive | decreasing (weakly active) | 62.68% | 60.97% | 64.40% | – | IC50 [3, 5]: > 13.5 µM
N#C[C@H]1[C@@H](c2ccc(C#CC3CC3)cc2)[C@@H](CO)N1C(=O)Cc1ccccn1 [BRD-K68325500-004-02-0] | – | – | 64.83% | 63.64% | 66.02% | – | rSmTAChE Data Mode (rSmTAChE [2]): inactive; rHsAChE Data Mode [3]: inactive
CC(C)(C)[S+]([O-])N1Cc2cc(C(=O)NCCN3CCCC3)nc(-c3cccc(-c4ccc(C#N)cc4)c3)c2C1CCO (stereo not drawn) [BRD-K49441594-001-01-4] | – | – | – | – | – | – | inhibition at 20 µM (rSmTAChE [1]; [4]): 61.8%; SI (Hs/Sm) (rSmTAChE [2]): 2.35; rSmTAChE Data Mode (rSmTAChE [2]): decreasing; IC50 ([3]; Table 2, DOS-A library, Inactive = inactive at the maximum tested concentration (40 µM), read-out: IC50 (µM) rHsAChE): 35.5 µM; IC50 ([3]; Table S4, DOS-A (IC50 values; qAC50), read-out: rHsAChE qAC50): 35.5 µM; rHsAChE Data Mode ([3]; dose response curve classification, Table S4, DOS-A): decreasing
O=c1sn(-c2cccc3ccccc23)c(=O)n1Cc1ccccc1 [BRD-K81330143-001-04-8] | inactive | inactive | 88.72% | 89.17% | 88.27% | – | –
CCCCCCCC/C=C\CCCCCCCC(=O)NCCc1ccc(O)c(O)c1 [OLDA, reference compound] | decreasing | decreasing (weakly active) | – | 93.41% | 95.51% | – | rSmTAChE HTS Inhibition (Ave, %) (rSmTAChE [1]; 20 µM): 94.46%; IC50 (rSmTAChE [2]; read-out: IC50 (µM) rSmTAChE): 36.1 µM; SI (Sm/Hs) [3]: 2.67; IC50 ([3]; read-out: IC50 (µM) rHsAChE): > 13.5 µM
COC(=O)N[C@H](C(=O)N1CC2(CC2)C[C@H]1c1ncc(-c2ccc3c(c2)C(F)(F)c2cc(-c4ccc5nc([C@@H]6[C@H]7CC[C@H](C7)N6C(=O)[C@@H](NC(=O)OC)C(C)C)[nH]c5c4)ccc2-3)[nH]1)C(C)C [BRD-K05446112-001-01-8] | decreasing (weakly active) | inactive | 66.27% | 67.15% | 65.39% | > 38 µM | –
Cc1cc(OCCCS(C)(=O)=O)cc(C)c1-c1cccc(COc2ccc3c(c2)OC[C@H]3CC(=O)O)c1 [TAK-875, reference compound] | decreasing | – | – | – | – | – | inhibition at 20 µM (rSmTAChE [1]; [7]): 65%; SI (Hs/Sm) (rSmTAChE [2]): 2.25; Data Mode (curve class), rHsAChE [3, 8]: decreasing (weakly active)
O=C(O)CCc1cc(C(=O)c2ccc(OC3CCCC3)cc2O)ccc1OCc1ccc2c(=O)[nH]oc2c1 [BRD-K84925803-001-01-9] | decreasing (weakly active) | inactive | 87.31% | 83.68% | 90.95% | > 38 µM | –
Cc1cc(C#N)cc(C)c1Oc1nc(Nc2ccc(C#N)cc2)nc(N)c1Br [BRD-K74717603-001-02-2] | decreasing (weakly active) | inactive | 74.49% | 77.10% | 71.88% | > 38 µM | –
O=C(O)c1ccc(-c2c[nH]c3ncc(-c4ccccc4)cc23)cc1C1CCCC1 [GSK-650394, reference compound] | decreasing | – | – | – | – | – | inhibition at 10 µM (rSmTAChE [1]; [7]): 75.4%; SI (Hs/Sm) (rSmTAChE [2]): 3.46; IC50 ([3]; IC50 (µM) rHsAChE): 8.1 µM; Data Mode (curve class), rHsAChE [3, 8]: decreasing; IC50 ([3]; qAC50 (IC50), rHsAChE): 8.09 µM
CCCCCCCCCCCC([NH2+][O-])c1cc(C)ccc1O (stereo not drawn) [BRD-A37752546-001-01-9] | inactive | decreasing | 84.23% | 82.45% | 86.01% | – | IC50 [3, 5]: 7.8 µM
CC#C[C@@H](CC(=O)O)c1ccc(OCc2cccc(-c3ccc(C(F)(F)F)cc3)c2)cc1 [BRD-K43802723-340-01-9] | decreasing | decreasing | 79.76% | 80.42% | 79.10% | 13.4 µM | IC50 [3, 5]: 15.4 µM
C#C[C@]1(OC(C)=O)CC[C@H]2[C@@H]3CCC4=C[C@@H](OC(C)=O)CC[C@@H]4[C@H]3CC[C@@]21C [BRD-K46331928-001-05-8] | decreasing (weakly active) | inactive | 94.91% | 95.51% | 94.31% | > 38 µM | –
COc1ccc(C#Cc2ccc3c(c2)O[C@H](CN(C)S(=O)(=O)c2ccccc2F)[C@@H](C)CN([C@@H](C)CO)S3(=O)=O)cc1 [BRD-K14241686-001-01-8] | – | – | 69.92% | 70.53% | 69.31% | – | rSmTAChE Data Mode (rSmTAChE [2]): decreasing (weakly active); rHsAChE Data Mode [3]: inactive
Cc1nc2sccn2c(=O)c1CCN1CCC(=C(c2ccc(F)cc2)c2ccc(F)cc2)CC1 [BRD-K40887525-001-23-5] | decreasing (weakly active) | decreasing | 80.73% | 82.03% | 79.42% | > 19.5 µM | IC50 [3, 5]: 10.9 µM
CCCC(=O)Nc1ccc2c(c1)OC[C@@H](C)N(Cc1cc(-c3ccccc3)on1)C[C@@H](C)[C@H](OC)CN(C)C2=O [BRD-K35965314-001-01-7] | – | – | 67.01% | 68.51% | 65.51% | – | rSmTAChE Data Mode (rSmTAChE [2]): inactive; rHsAChE Data Mode [3]: inactive
COc1ccc(C(Cl)=C(c2ccc(OC)cc2)c2ccc(OC)cc2)cc1 [BRD-K27062708-001-23-1] | inactive | decreasing (weakly active) | 64.11% | 62.61% | 65.61% | – | IC50 [3, 5]: > 38 µM
CCN(c1ccccc1)c1cc(=NC)n(C)c(C)n1 [ZD-7288, 4-ethylphenylamino-1,2-dimethyl-6-methylaminopyrimidinium chloride, reference compound] | decreasing | – | – | – | – | – | inhibition at 10 µM (rSmTAChE [1]; [7]): 75%; SI (Hs/Sm) (rSmTAChE [2]): 46.87; fold greater potency/selectivity for SmTAChE vs. HsAChE (Selectivity Index) (rSmTAChE [2]): ~50 fold; IC50 ([3]; Table 1, Inactive = inactive at the maximum tested concentration (40 µM), read-out: IC50 (µM) rHsAChE): > 19.5 µM; Data Mode (curve class), rHsAChE [3, 8]: decreasing (weakly active); IC50 ([3]; read-out: IC50 for rHsAChE): ~20 µM
CC(C)(C)[S@@+]([O-])N1Cc2cc(C(=O)N3CCCCC3)nc(-c3cccc(-c4ccccc4F)c3)c2[C@H]1CCO [BRD-K19167425-001-01-6] | – | – | 62.31% | 62.60% | 62.02% | – | rSmTAChE Data Mode (rSmTAChE [2]): decreasing (weakly active); rHsAChE Data Mode [3]: inactive
O=C1[C@@H]2[C@H]3CC[C@H](C3)[C@@H]2C(=O)N1C[C@@H]1CCCC[C@H]1CN1CCN(c2nsc3ccccc23)CC1 [BRD-K51143828-003-03-1] | decreasing (weakly active) | inactive | 77.24% | 79.39% | 75.09% | > 38 µM | –
